Bridge positions count the residues as written; N and C are the ends. Square brackets hold non-standard residues; d marks the D form. Peptide text beside a SMILES is read from it. * marks the point of attachment. Octanoyl = CCCCCCCC(=O)*; Dab = NCC[C@H](N)C(=O)O; Abu = CC[C@H](N)C(=O)O
Assays:
[1] = tested on: S. marcescens ATCC8100; assay: MIC by E-strips on Mueller-Hinton agar with or without NAB7061 (4 µg/ml); type: cell-based, Serratia marcescens
Description: (§1) MICs were determined by using E-strips (Biodisk Ltd., Solna, Sweden) according to the manufacturer's instructions.
(§2) The strains originated from ATCC (11 strains), CCUG (11 strains), and NCTC (The National Collection of Type Cultures, Colindale, U.K.; 2 strains). Eight strains (the F-strains) were purchased from Mobidiag Ltd., Helsinki, Finland.

[2] = tested on: E. coli IH3080 (O18:K1); assay: Synergistic bactericidal activity with guinea pig serum (complement); type: cell-based, Escherichia coli; conditions: none (PBS)
[3] = tested on: E. cloacae F230; assay: MIC by E-strips on Mueller-Hinton agar with or without NAB7061 (4 µg/ml); type: cell-based, Enterobacter cloacae
Description: as §1, §2

[4] = tested on: E. cloacae CCUG52947; assay: as above; type: cell-based, Enterobacter cloacae
Description: as §1, §2

[5] = tested on: E. cloacae F232; assay: as above; type: cell-based, Enterobacter cloacae
Description: as §1, §2

SMILES: CCCCCCCC(=O)N[C@H](C(=O)N[C@@H](CC)C(=O)N[C@H]1CCNC(=O)[C@H]([C@@H](C)O)NC(=O)[C@H](CCN)NC(=O)[C@H](CCN)NC(=O)[C@H](CC(C)C)NC(=O)[C@@H](Cc2ccccc2)NC(=O)[C@H](CCN)NC1=O)[C@@H](C)O [NAB 7061, OA-Thr-Abu-cy[Dab-Dab-DPhe-Leu-Dab-Dab-Thr-]] (Octanoyl-T[Abu][Dab][Dab][dF]L[Dab][Dab]T; lactam 3-C)
- Sensitization factor to clarithromycin ([1]; 4 µg/ml of NAB 7061): <2
- Sensitization factor to rifampin ([1]; 4 µg/ml of NAB 7061): <2
- % survival after 2-hour treatment at 37°C ([2]; NAB7061 1 µg/ml): 97%
- % survival after 2-hour treatment at 37°C ([2]; NAB7061 2 µg/ml): 97%
- % survival after 2-hour treatment at 37°C ([2]; NAB7061 4 µg/ml): 79%

Reference: EP2057185B1, “POLYMYXIN DERIVATIVES AND USES THEREOF” (Northern Antibiotics Oy, priority 2006, dated 2008)
